Values of other authors as cited in patent publication US20190290478A1, “MEDICINAL HERBAL COMPOSITION FOR EYE APPLICATION” (priority 2018, published 2019).

Tests used:
[1] = test system: HCECs exposed to hyperosmotic stress
murine dry eye = conditions: 10 mM betaine compared with placebo on the 14, 21, 35 days

For `C[N+](C)(C)CC(=O)O` [betaine], the “inflammatory response via TRPV1 pathway” value [1] is given as “suppress inflammatory response” and the “dry eye's symptom” value (murine dry eye) is given as “significantly reduced”.
